Laboratory results published in paper PMC9098913, “In vitro reconstitution of Escherichia coli divisome activation” (Nature Communications, 2022).
Read-outs that look alike come from different tables or passages of the source.

Columns and labels:
[1] = system: FtsA self-interaction; assay: Cuvette FRET of FtsA in solution and with lipid vesicles (SUVs); type: binding, E. coli; details: for FRET efficiency: Fig. S3c, in cuvette
Method: For in solution FRET experiments, increasing concentrations of Cy3-FtsA and Cy5-FtsA in a 50:50 ratio were mixed in 100 µl reaction buffer (50 mM Tris-HCl [pH7.4], 150 mM KCl and 5 mM MgCl2) inside a quartz cuvette (Hellma® fluorescence cuvettes, ultra Micro). The spectrums were measured using a Spectrophotometer Spectramax M2e Plate- + Cuvette Reader (Molecular Devices). Cy3-FtsA was excited at a wavelength of 520 nm and the resulting emission spectrum was recorded from 550–700 nm in 1 nm steps. To avoid crosstalk of the excitation light, a cutoff filter was set to 550 nm. Addition of ATP or small unilamellar vesicles (SUVs) was measured individually for each concentration. Buffer controls containing the corresponding reagents and only Cy5-FtsA were measured and used as background corrections for measurements with Cy3- and Cy5-FtsA. Background corrected spectra were used to estimate FRET efficiency by E(%)=Fa/Fd+Fa⋅100 , where Fa is the peak of acceptor (=Cy5) emission at 670 nm and Fd the peak of the emission of the donor (=Cy3) spectrum at 565 nm.

[2] = Fig. S4b, 0.10 % Tris NTA
Method: To study colocalization of His-tagged variants of FtsA, 0.5–1 µM of Cy5 labelled His-tagged FtsAs were added to the chamber, incubated for 20 min and washed 6x with reaction buffer. […] To control the density of membrane-bound FtsA, SUVs without and with Tris-NTA lipids were mixed to obtain the respective Tris-NTA concentrations. To perform FRET/FRAP experiments, equimolar concentrations of Cy3 and Cy5 labelled His-tagged FtsAs (total 0.5–1 µM) or His-SUMO-Cys were added to a chamber and treated as above. […] FRAP experiments were performed as described before.
To calculate the theoretical spacing of His-tagged FtsAs or the His-SUMO control, we consulted a previous QCM-D study using Tris-NTA lipids and a His-tagged version of ZipA[50]. The spacing in nm^2 was calculated by y=2/3⋅1/6.022⋅x⋅0.001 , where x is the protein density in pMol cm^−2 which can be estimated from the Tris-NTA lipid density.
To estimate the theoretical maximum packing of membranes containing Tris-NTA lipids, we can assume the area of a single FtsA molecule to be ~30 nm^2 and the area of a single lipid molecule to be 0.5 nm^2. […] For the FRET control experiments with His-SUMO-Cys, we estimate a four times smaller area for His6-SUMO Cys (~7 nm^2) and thus increase the maximum Tris-NTA density to 5%.

[3] = system: FtsZ
Method: Additionally, the reaction chamber contained 4 mM ATP and 4 mM GTP, as well as a scavenging system to minimize photobleaching effects: 30 mM d-glucose, 0.050 mg ml^−1 Glucose Oxidase, 0.016 mg ml^−1 Catalase, 1 mM DTT and 1 mM Trolox. Prior addition of all components a corresponding buffer volume was removed from the chamber to obtain a total reaction volume of 100 µl. The dynamic protein pattern was monitored by time-lapse TIRF microscopy at one frame per 2 s and 50 ms exposure time.

[4] = system: FtsZ filaments; assay: FtsZ turnover / lifetime / off-rate, single-molecule tracking; type: biochemical, E. coli
Method: Single-molecule experiments were performed as described previously. In short, individual FtsZ proteins were imaged at single-molecule level by adding small amounts of Cy5-labelled FtsZ (200 pM) to a chamber with 0.2 or 0.4 µM FtsA and 1.25 μM Alexa488-FtsZ.
Single molecules of FtsA or FtsZ were tracked using the TrackMate plugin from ImageJ[43]. To obtain the residence time of FtsZ and FtsA, we performed a residence time analysis as described before[40],[47]. Shortly, single molecules were imaged at different acquisition rates (0.1–2 s) and the lifetime of the molecules was extracted from each data set. To account for photobleaching effect, the obtained lifetimes were plotted against the acquisition rate. […] Furthermore, we extracted the diffusion coefficient of FtsA single molecules at increasing concentrations. For this, we filtered the obtained data, by considering only trajectories which are present on the membrane for more than 0.4 s. […] Subsequently, the diffusion coefficient of FtsA molecules was estimated by fitting an MSD curve to each individual trajectory.

FtsA WT: wild-type E. coli actin-homologue FtsA, membrane anchor of FtsZ
FRET efficiency ([1]; + SUVs, 0.05 µM, mean, n = 3): 1.50%
FRET efficiency ([1]; + SUVs, 0.05 µM, replicate 1): 1.29%
FRET efficiency ([1]; + SUVs, 0.05 µM, replicate 2): 1.96%
FRET efficiency ([1]; + SUVs, 0.05 µM, replicate 3): 1.25%
FRET efficiency ([1]; + SUVs, 0.10 µM, mean, n = 3): 6.63%
FRET efficiency ([1]; + SUVs, 0.10 µM, replicate 1): 6.56%
FRET efficiency ([1]; + SUVs, 0.10 µM, replicate 2): 7.39%
FRET efficiency ([1]; + SUVs, 0.10 µM, replicate 3): 5.94%
FRET efficiency ([1]; + SUVs, 0.20 µM, mean, n = 3): 7.59%
FRET efficiency ([1]; + SUVs, 0.20 µM, replicate 1): 8.16%
FRET efficiency ([1]; + SUVs, 0.20 µM, replicate 2): 7.75%
FRET efficiency ([1]; + SUVs, 0.20 µM, replicate 3): 6.87%
FRET efficiency ([1]; without SUVs, 0.05 µM, mean, n = 3): 0.0114%
FRET efficiency ([1]; without SUVs, 0.05 µM, replicate 1): 0.0544%
FRET efficiency ([1]; without SUVs, 0.05 µM, replicate 2): -1.50%
FRET efficiency ([1]; without SUVs, 0.05 µM, replicate 3): 1.48%
FRET efficiency ([1]; without SUVs, 0.10 µM, mean, n = 3): 1.67%
FRET efficiency ([1]; without SUVs, 0.10 µM, replicate 1): 1.71%
FRET efficiency ([1]; without SUVs, 0.10 µM, replicate 2): 2.21%
FRET efficiency ([1]; without SUVs, 0.10 µM, replicate 3): 1.09%
FRET efficiency ([1]; without SUVs, 0.20 µM, mean, n = 3): 2.87%
FRET efficiency ([1]; without SUVs, 0.20 µM, replicate 1): 2.43%
FRET efficiency ([1]; without SUVs, 0.20 µM, replicate 2): 2.56%
FRET efficiency ([1]; without SUVs, 0.20 µM, replicate 3): 3.62%
FRET in solution ([1]; cuvette, no lipid): could not detect any significant FRET signal
FRET with lipid vesicles ([1]; cuvette, presence of lipid vesicles): FRET increased significantly

FtsA-His6: FtsA WT (1-405) with amphipathic helix replaced by C-terminal His-tag
FtsA His6 intensity on Tris NTA SLBs ([2]; replicate 1): 1571.82 a.u.
FtsA His6 intensity on Tris NTA SLBs ([2]; replicate 2): 1134.07 a.u.
FtsA His6 intensity on Tris NTA SLBs ([2]; replicate 3): 932.94 a.u.

B1: FtsA R286W (protein)
chain: MIKATDRKLVVGLEIGTAKVAALVGEVLPDGMVNIIGVGSCPSRGMDKGGVNDLESVVKCVQRAIDQAELMADCQISSVYLALSGKHISCQNEIGMVPISEEEVTQEDVENVVHTAKSVRVRDEHRVLHVIPQEYAIDYQEGIKNPVGLSGVRMQAKVHLITCHNDMAKNIVKAVERCGLKVDQLIFAGLASSYSVLTEDERELGVCVVDIGGGTMDIAVYTGGALRHTKVIPYAGNVVTSDIAYAFGTPPSDAEAIKVRHGCALGSIVGKDESVEVPSVGGRPPWSLQRQTLAEVIEPRYTELLNLVNEEILQLQEKLRQQGVKHHLAAGIVLTGGAAQIEGLAACAQRVFHTQVRIGAPLNITGLTDYAQEPYYSTAVGLLHYGKESHLNGEAEVEKRVTASVGSWIKRLNSWLRKEF
modifications: Cy3 or Cy5 at the N-terminus in the labelled form (labelled CLEPTGG peptide conjugated to the 5xGly tag by sortagging); unlabelled protein also used; left off: TwinStrep-SUMO, N-terminal, cleaved | 5x
FtsZ fluorescence intensity compared to the wild-type protein [3]: increased
FtsZ turnover compared to the wild-type protein [4]: slightly decreased
